In US10709724B2, “Methods of treating mitochondrial dysfunction” (Ecole Polytechnique Federale de Lausanne (EPFL), priority 2011, dated 2020):

System: C57Bl/6J male mice
Test: PJ34 treatment of mice (5 days)
Assay type: in vivo
Settings: 10 mg/kg i.p. twice a day
Protocol: Animal Experiments. Male PARP-1^+/+ and PARP-1^−/− mice on a pure C57Bl/6J background (Menissier-de Murcia et al., 1997) were used. Mice were housed separately, had ad libitum access to water and standard rodent chow (10 kcal % of fat, Safe, Augy, France) or to a high calorie, high fat diet (60 kcal % of fat, Research. Diets, New Brunswick, N.J., USA), and were kept under a 12 h dark-light cycle. In other animal experiments, 8 weeks-old male C57Bl/6J mice were purchased from Charles River and powder chow (D12450B) and high fat (D12492) diets were from Research Diets Inc (New Brunswick, N.J., USA). 80 ml of water per kg of powder CD were used to make food pellets. 40 ml of water per kg of powder HFD were used to make food pellets. For NR, NMN and NA supplemented diets, the appropriate amount of these compounds was added to the water used to create the pellets, taking into account the differences in the daily intake of each diet. Mice were housed separately, had ad libitum access to water and food and were kept under a 12 h dark-light cycle. Mice were fed with homemade pellets from 10 weeks of age. To make the pellets, the powder food was mixed with water (vehicle) or with NR. All animal experiments were carried out according to local national and EU ethical guidelines. To monitor body weight, mice were weighed and the food consumption was measured each week on the same day. In case of PJ34 treatment, mice received each 12 h (at 7:00 and 19:00) 10 mg/kg PJ34 by intraperitoneal injection for 5 continuous days. In all studies animals were killed (at 14:00) either after CO2 inhalation or cervical dislocation after 6 h of fasting (starting at 8:00), and tissues were collected and processed as specified below. Oral glucose tolerance test, intraperitoneal insulin tolerance test, free fatty acid (FFA) and triglycerides were determined as described (Lagouge et al., 2006). Plasma insulin and was determined in heparinized plasma samples using specific ELISA kits (Mercodia). Blood samples were collected in heparinized tubes and plasma was isolated after centrifugation. Plasma parameters were measured using a Cobas c111 (Roche Diagnostics). Thermoadaptation was performed as described (Lagouge et al., 2006). We measured O2 consumption, CO2 production, and spontaneous locomotor activity in an open circuit indirect calorimetry system (Sabre systems, Las Vegas, Nev., USA) over 24-48 has described (Dali-Youcef et al., 2007; Lagouge et al., 2006; Watanabe et al., 2006). […] The respiratory quotient was the ratio of CO2 production over O2 consumption. During actimetry, beamline crossings were summarized each 15 minutes. […] Euglycemic-hyperinsulinemic clamps were performed in PARP-1^−/− and ^+/+ male mice (n=4 mice per genotype; age=4 months) exactly as previously described (Feige et al, 2008).
mRNA and mtDNA Analysis. Total RNA was prepared using TRIzol (Invitrogen) according to the manufacturer's instructions. RNA was treated with DNase, and 2 μg of RNA was used for reverse transcription (RT). cDNA was purified on QIAquick PCR cleanup columns (Qiagen, Valencia, Calif., USA). 50× diluted cDNA was used for RT-quantitative PCR (RT-VCR) VCR) reactions (Bai et al., 2007). The RT-qPCR reactions were performed using the Light-Cycler system (Roche Applied Science) and a qPCR Supermix (Qiagen) with the primers for mice summarized in Table 1 and 4, and with the primers for worms summarized on Table 7. mtDNA quantification was performed as described (Lagouge et al., 2006) with the primers indicated in Table 2 and 5.
Immunoprecipitation, SDS-PAGE, Western Blotting. Cells were lysed in lysis buffer (50 mM Tris, […], EDTA 1 mM, NP40 1%, nicotinamide 5 mM, Na-butyrate 1 in M, protease inhibitors pH7.4). Proteins were separated by SDS-PAGE and transferred onto nitrocellulose membranes. The origin of the primary and secondary antibodies used can be found as supplemental experimental procedures. […]

## CN(C)CC(=O)Nc1ccc2[nH]c(=O)c3ccccc3c2c1 [PJ34]
  Dio2 mRNA in BAT: significantly induced
  Myoglobin mRNA levels in muscle: increase in Myoglobin mRNA levels
  NAD+ levels in BAT and muscle: edged up in PJ34-treated animals, even though the increase was only statistically significant in muscle
  PARP activity in BAT and muscle: robustly decrease PARP activity
  PGC-1α acetylation levels in BAT and muscle: reduced PGC-1α acetylation levels
  mitochondrial gene expression in BAT and muscle (Ndufa2, Ndufa5, UCP2, UCP3): tendency to a higher expression of a number of mitochondrial genes
Vehicle 1.21±0.08, p=0.08
  triglycerides: 1.11 ± 0.04 mM
Vehicle 1.59±0.06, p=0.03
  free fatty acid levels: 1.44±0.03 mEq/L
Vehicle 9.94±0.28, p=0.05
  blood glucose: 9.19 ± 0.58 mM
